Measurements reported in patent publication EP2020405A1, “Substituted aryl or heteroarylpiperidine derivatives as melanocortin-4 receptor modulators” (Santhera Pharmaceuticals (Schweiz) AG, priority 2007, dated 2009).

Key:
[1] = target: T1, hMC-4R (Homo sapiens, UniProt P32245); experiment: Functional assay (membrane based cAMP fluorescence polarization, agonistic activity); assay type: biochemical; design: concentration or dose not given beside the values; settings: cAMP produced compared to stimulation with NDP-alpha-MSH
T1 construct: expressed in transfected cells; host or cells: HEK293
T1 sequence (P32245 whole entry): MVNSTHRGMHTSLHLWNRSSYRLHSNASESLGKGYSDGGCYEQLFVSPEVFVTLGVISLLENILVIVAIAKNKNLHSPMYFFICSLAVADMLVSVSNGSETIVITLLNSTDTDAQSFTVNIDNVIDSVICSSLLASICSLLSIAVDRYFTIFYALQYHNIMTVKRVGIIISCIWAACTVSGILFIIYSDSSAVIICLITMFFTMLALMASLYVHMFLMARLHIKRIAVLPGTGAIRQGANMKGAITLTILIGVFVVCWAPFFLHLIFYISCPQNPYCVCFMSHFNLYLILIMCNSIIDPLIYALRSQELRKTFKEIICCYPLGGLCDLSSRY
Description: Agonistic activity of human melanocortin receptors is determined in a homogeneous membrane based assay.
Membrane preparations from HEK293 cells expressing the human melanocortin receptors are added. After a short preincubation period, an appropriate amount of ATP, GTP and the cAMP antibody is added and the plate is further incubated before the fluorescence labeled cAMP conjugate is dispensed. The plate is incubated for 2 h at 4°C before it is read on a fluorescence polarization microplate reader. The amount of cAMP produced as a response to a test compound is compared to the production of cAMP resulting from stimulation with NDP-alpha-MSH.

[2] = target: T1, hMC-4R; experiment: Membrane binding assay (fluorescence polarization, competition with fluorescence labeled NDP-alpha-MSH); settings: HEK293 cell membrane preparations expressing human melanocortin receptors; 5 h at room temperature

| % activation functional assay [1] | IC50 [2] | SMILES |
| --- | --- | --- |
| 0% | 180 nM | O=C(C(Cc1ccc(Cl)cc1Cl)N1CCCCC1)N1CCC(c2cc(F)ccc2CCN2CCCC2)CC1 (stereo not drawn) [Example 15] |
| 0% | 2.4 nM | CCC(CN1CCCC1)Oc1cc(Cl)ccc1C1CCN(C(=O)[C@@H](Cc2ccc(Cl)cc2Cl)N2CCCC2)CC1 (stereo partly drawn) [Example 4] |
| 14% | 62 nM | O=C(C(Cc1ccc(Cl)cc1Cl)N1CCCCC1)N1CCC(c2ccc(Cl)cc2OCCN2CCCC2)CC1 (stereo not drawn) [Example 10] |

The next lines start with the compound.

| SMILES | % activation functional assay [1] | IC50 [2] |
| --- | --- | --- |
| CCC(Cc1cc(Cl)ccc1C1CCN(C(=O)C(Cc2ccc(Cl)cc2Cl)n2cncn2)CC1)CN1CCCC1 (stereo not drawn) [Example 22] | 0% | 17 nM |
| O=C(C(Cc1ccc(Cl)cc1Cl)Nc1cccnc1)N1CCC(c2ccc(Cl)cc2OCCN2CCCC2)CC1 (stereo not drawn) [Example 27] | 0% | 5.9 nM |
| CCC(COc1cc(Cl)ccc1C1CCN(C(=O)[C@@H](Cc2ccc(Cl)cc2Cl)N2CCCC2)CC1)N1CCCC1 (stereo partly drawn) [Example 3] | 0% | 2.1 nM |
| Cc1ccn(C(Cc2ccc(Cl)cc2Cl)C(=O)N2CCC(c3ccc(Cl)cc3OCCN3CCCC3)CC2)n1 (stereo not drawn) [Example 34] | 0% | 220 nM |
| O=C(C(Cc1ccc(Cl)cc1Cl)n1cncn1)N1CCC(c2ccc(Cl)cc2OCCN2CCCC2)CC1 (stereo not drawn) [Example 23] | 0% | 7.7 nM |
| O=C(C(Cc1ccc(Cl)cc1Cl)N1CCOCC1)N1CCC(c2ccc(Cl)cc2OCCN2CCCC2)CC1 (stereo not drawn) [Example 25] | 0% | 100 nM |
